Patent US10383950B2, “Methods and compositions of carrier systems for the purpose of intracellular drug targeting” (HELMHOLTZ-ZENTRUM FÜR INFEKTIONSFORSCHUNG GMBH, priority 2014, dated 2019)

Key:
[1] = cited from earlier work
[2] = In vitro release of gentamicin (dialysis membrane setup); details: 37° C., PBS pH 7.4, 10.000 MWCO cellulose membrane

gentamicin
pKa [1]: 8.2 | time at which gentamicin became detectable in the bulk release medium [2]: ≤ 1 min | time to complete release / permeation of gentamicin [2]: 1.5 h
